Measurements reported in patent US5135932A, “2-hydroxypropylamino-alkyl-benzimidazoly-5-yl derivatives and their use in the treatment of heart disease” (Dr. Karl Thomae GmbH, priority 1989, dated 1992).

Assays:
[1] = molecular target: T1, β1 adreno receptor (rat hearts) (Rattus norvegicus, UniProt P18090); assay: Affinity for β-adreno receptors: inhibition of 3H-CGP 12177 binding, receptor preparations from rat hearts (β1); conditions: 200 pM 3H-CGP 12177
T1 construct: receptor preparations from rat hearts (β1); from tissue; host or cells: rat heart membrane preparation
T1 sequence (P18090 whole entry): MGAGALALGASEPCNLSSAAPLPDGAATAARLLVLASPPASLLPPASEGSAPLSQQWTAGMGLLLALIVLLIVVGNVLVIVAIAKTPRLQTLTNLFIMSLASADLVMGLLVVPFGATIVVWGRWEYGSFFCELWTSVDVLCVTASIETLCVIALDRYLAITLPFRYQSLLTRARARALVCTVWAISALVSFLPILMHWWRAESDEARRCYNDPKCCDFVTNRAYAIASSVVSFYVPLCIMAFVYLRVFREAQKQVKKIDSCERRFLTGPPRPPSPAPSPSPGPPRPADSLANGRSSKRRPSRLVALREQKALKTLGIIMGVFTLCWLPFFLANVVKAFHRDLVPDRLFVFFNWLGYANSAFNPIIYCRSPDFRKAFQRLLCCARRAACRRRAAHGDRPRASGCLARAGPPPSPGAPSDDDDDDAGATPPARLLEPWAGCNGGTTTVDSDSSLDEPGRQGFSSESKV
Experimental: (§1) 1. Affinity for β-adreno recectors
(§2) The inhibitory effect on the binding of ^3 H-CGP 12177 was tested on receptor preparations from rat hearts (β1) and rat lungs (β2). The binding assay was carried out with some modifications according to the method of Dammgen et al. (Drug. Res. 35: 383-390 (1985)). The incubation mixture contained aliquots of the membrane preparation in Tris buffer, increasing concentrations of the potential antagonist as well as 200 pM ^3 H-CGP 12177. The bound and free radioligands were separated after the incubation period by rapid filtration through glass fibre filters. The filter-bound radioactivity was determined in a β counter with a counting yield of about 52%. The non-specific binding was determined in the presence of 10^-5 M propranolol.

[2] = molecular target: T2, β2 adreno receptor (rat lungs) (Rattus norvegicus, UniProt P10608); assay: Affinity for β-adreno receptors: inhibition of 3H-CGP 12177 binding, receptor preparations from rat lungs (β2); conditions: 200 pM 3H-CGP 12177
T2 construct: rat lungs (β2); from tissue; host or cells: rat lung membrane preparation
T2 sequence (P10608 whole entry): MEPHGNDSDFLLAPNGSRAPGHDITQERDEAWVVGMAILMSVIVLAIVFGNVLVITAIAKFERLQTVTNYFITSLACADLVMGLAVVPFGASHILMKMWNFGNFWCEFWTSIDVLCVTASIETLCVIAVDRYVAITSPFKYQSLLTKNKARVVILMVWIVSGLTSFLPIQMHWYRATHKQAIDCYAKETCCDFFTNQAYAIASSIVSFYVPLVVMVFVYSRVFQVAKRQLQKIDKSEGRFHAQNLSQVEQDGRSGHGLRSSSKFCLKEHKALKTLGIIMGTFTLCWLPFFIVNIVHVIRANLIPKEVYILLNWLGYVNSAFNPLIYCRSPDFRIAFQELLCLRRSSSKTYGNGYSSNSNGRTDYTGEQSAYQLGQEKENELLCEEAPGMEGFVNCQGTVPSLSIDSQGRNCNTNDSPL
Experimental: as §1, §2

[3] = tested on: Guinea-pigs (Dunkin-Hartley-Pirbright, male); assay: Cardiotonic effect: LV-dP/dtmax and heart rate in anaesthetised guinea-pigs; type: in vivo, guinea-pig; conditions: after a dose of 3 mg/kg i.v., averages from 2 to 3 tests; for change in vivo at 3 mg/kg: Cavia porcellus, iv, read-out: Effects on LV-dP/dtmax % increase
Experimental: (§3) Cardiotonic effect with antiadrenergic activity
(§4) Guinea-pigs (Dunkin-Hartley-Pirbright, male, 450-600 g) were anaesthetised with hexobarbital-sodium (150 mg/kg i.p.). After the animals had become unconscious, a tracheal cannula was inserted and the animals were pitched (van Meel, J. Pharmacol. Methods 31 (1): 1-11 (1985)). The animals were then immediately artificially respirated using a breathing pump. The left ventricular pressure (LVP) was measured with a Millar PR-249 catheter-tip manometer inserted into the left ventricle through the left carotid artery. This pressure signal was differentiated electronically (LV-dP/dtmax) and used as a parameter for inotropia. The arterial blood pressure was recorded by a cannula in the right carotid artery using a Bell & Howell pressure recorder. The heart rate was also measured. The substances were administered through a cannula in the jugular vein.
(§5) The test substances were administered to three animals cumulatively in four doses (0.1 to 3 mg/kg) and the effects on blood pressure, heart rate and LV-dP/dtmax were measured. Three minutes after the last dose of the test substance, isoprenalin was administered intravenously in increasing doses. In this way, a cumulative dose-activity correlation was obtained for isoprenalin in the presence of the test substance. The parameters measured were the increase in heart rate and the LV-dP/dtmax. These dose-activity curves were compared with standard curves for isoprenalin without the test substances. The shift to the right of the dose-activity curves for isoprenalin brought about by the test substances were determined graphically and corresponding pA2 values for the test substances were calculated. (see Tenakin in "Pharmacologic Analysis of Drug Receptor Interaction", Rawen Press 1987, pages 211-212).
(§6) The Table which follows contains the averages from 2 to 3 tests: […]

[4] = Antiadrenergic activity: shift of isoprenalin dose-activity curves in guinea-pigs (pA2); type: in vivo, guinea-pig; conditions: averages from 2 to 3 tests; for pA2 heart rate: against heart rate-increasing activity of isoprenalin; for pA2 inotropia: against inotropic activity of isoprenalin (LV-dP/dtmax)
Experimental: as §3, §4, §5, §6

Structure (SMILES) | IC50 [1] [nM] | IC50 [2] [nM] | change in vivo at 3 mg/kg [3] [%] | Effect on heart rate in beats per minute [3] [beats per minute] | pA2 heart rate [4] | pA2 inotropia [4]
CC(C)OCCOCc1ccc(OCC(O)CNCCOc2ccc(-c3ccc(=O)[nH]n3)cc2)cc1 (centres unmarked) [Substance G, 6-[4-[2-[3-(4-(2-isopropoxyethoxymethyl)phenoxy)-2-hydroxypropylamino]ethoxy]phenyl]-3(2H)-pyridazinone] | 53 | 4400 | 38 | -36 | 6.38 | 6.32
Cc1cc(-c2ccc(=O)[nH]n2)ccc1OCCNCC(O)COc1ccc(COCCOC(C)C)cc1 (centres unmarked) [Substance Q, 6-[4-[2-[3-(4-(2-isopropoxyethoxy-methyl)phenoxy)-2-hydroxy-propylamino]ethoxy]-3-methyl-phenyl]-3(2H)-pyridazinone] | 2 | 210 | – | – | – | –
O=C1CCC(c2ccc3c(c2)ncn3CCNCC(O)COc2ccc(CCOCC3CCC3)cc2)=NN1 (centres unmarked) [Substance A, 6-[1-[2-[3-(4-(2-cyclobutylmethoxy-ethyl)phenoxy)-2-hydroxy-propylamino]ethyl]benzimidazol-5-yl]-4,5-dihydro-3(2H)-pyridazinone] | 26 | 940 | 50 | -23 | 8.20 | 6.30
O=c1ccc(-c2ccc(OCCNCC(O)COc3ccc(CCOCC4CC4)cc3)cc2)n[nH]1 (centres unmarked) [Substance D, 6-[4-[2-[3-(4-(2-cyclopropylmethoxyethyl)phenoxy)-2-hydroxy-propylamino]ethoxy]phenyl]-3(2H)-pyridazinone] | 22 | 1000 | 51 | -49 | 7.24 | 6.67
O=C1CCC(c2ccc3c(c2)ncn3CCNCC(O)COc2ccc(CCOCC3CC3)cc2)=NN1 (centres unmarked) [Substance B, 6-[1-[2-[3-(4-(2-cyclopropylmethoxy-ethyl)phenoxy)-2-hydroxy-propylamino]ethyl]benzimidazol-5-yl]-4,5-dihydro-3(2H)-pyridazinone] | 34 | 2300 | 51 | -47 | 6.95 | 6.83
O=C1CCC(c2ccc(OCCNCC(O)COc3ccc(CCOCC4CCC4)cc3)cc2)=NN1 (centres unmarked) [Substance E, 6-[4-[2-[3-(4-(2-cyclobutylmethoxy-ethyl)phenoxy)-2-hydroxy-propylamino]ethoxy]phenyl]-4,5-dihydro-3(2H)-pyridazinone] | 15 | 1100 | 49 | -71 | 7.23 | 6.19
Cc1cc(C2=NNC(=O)CC2)ccc1OCCNCC(O)COc1ccc(COCCOC(C)C)cc1 (centres unmarked) [Substance N, 6-[4-[2-[3-(4-(2-isopropoxyethoxy-methyl)phenoxy)-2-hydroxy-propylamino]ethoxy]-3-methyl-phenyl]-4,5-dihydro-3(2H)-pyridazinone] | 2.6 | 520 | 34 | -94 | 8.34 | 7.34
CC(C)COCCc1ccc(OCC(O)CNC(C)(C)Cn2cnc3cc(C4=NNC(=O)CC4)ccc32)cc1 (centres unmarked) [Substance I, 6-[1-[2-[3-(4-(2-isobutoxyethyl)phenoxy)-2-hydroxypropylamino]-2,2-dimethyl-ethyl]benzimidazol-5-yl]-4,5-dihydro-3(2H)-pyridazinone] | 12 | 65 | 58 | -59 | 7.89 | 7.17

Continued by falling IC50 [1], values first:

IC50 [1] [nM] | IC50 [2] [nM] | Structure (SMILES) | change in vivo at 3 mg/kg [3] [%] | Effect on heart rate in beats per minute [3] [beats per minute] | pA2 heart rate [4] | pA2 inotropia [4]
59 | 66 | Cc1cc(C2=NNC(=O)CC2)ccc1OCCCNCC(O)COc1ccc(CCOCC2CC2)cc1 (centres unmarked) [Substance O, 6-[4-[3-[3-(4-(2-cyclopropylmethoxy-ethyl)phenoxy)-2-hydroxy-propylamino]propoxy]-3-methyl-phenyl]-4,5-dihydro-3(2H)-pyridazinone] | 38 | -116 | 7.70 | 6.44
29 | 1200 | O=C1CCC(c2ccc(OCCNCC(O)COc3ccc(CCOCC4CC4)cc3)cc2)=NN1 (centres unmarked) [Substance C, 6-[4-[2-[3-(4-(2-cyclopropylmethoxy-ethyl)phenoxy)-2-hydroxy-propylamino]ethoxy]phenyl]-4,5-dihydro-3(2H)-pyridazinone] | 25 | -51 | 7.22 | 6.76
24 | 7200 | CC(C)OCCOCc1ccc(OCC(O)CNCCOc2ccc(C3=NNC(=O)CC3)cc2)cc1 (centres unmarked) [Substance F, 6-[4-[2-[3-(4-((2-isopropoxyethoxy)methyl)phenoxy)-2-hydroxy-propylamino]ethoxy]phenyl]-4,5-dihydro-3(2H)-pyridazinone] | 37 | -94 | 6.96 | 7.14
10 | 350 | CC(C)OCCOCc1ccc(OCC(O)CNCCCOc2ccc(C3=NNC(=O)CC3)cc2Cl)cc1 (centres unmarked) [Substance K, 6-[4-[3-[3-(4-(2-isopropoxyethoxy-methyl)phenoxy)-2-hydroxy-propylamino]propoxy]-3-chloro-phenyl]-4,5-dihydro-3(2H)-pyridazinone] | 11 | -121 | 7.52 | 6.56
10 | 19 | CC(C)COCCc1ccc(OCC(O)CNCCCn2cnc3cc(C4=NNC(=O)CC4)ccc32)cc1 (centres unmarked) [Substance H] | 10 | -90 | > 9.0 | 8.28
7.6 | 600 | CC(C)OCCOCc1ccc(OCC(O)CNCCOc2ccc(C3=NNC(=O)CC3)cc2Cl)cc1 (centres unmarked) [Substance L, 6-[4-[2-[3-(4-(2-isopropoxyethoxy-methyl)phenoxy)-2-hydroxy-propylamino]ethoxy]-3-chloro-phenyl]-4,5-dihydro-3(2H)-pyridazinone] | 66 | -51 | 6.77 | 6.23
6 | 220 | Cc1cc(C2=NNC(=O)CC2)ccc1OCCCNCC(O)COc1ccc(CCOCC2CCC2)cc1 (centres unmarked) [Substance P, 6-[4-[3-[3-(4-(2-cyclobutylmethoxy-ethyl)phenoxy)-2-hydroxy-propylamino]propoxy]-3-methyl-phenyl]-4,5-dihydro-3(2H)-pyridazinone] | 69 | -61 | 6.45 | 5.31
0.5 | 100 | Cc1cc(C2=NNC(=O)CC2)ccc1OCCNCC(O)COc1ccc(CCOCC2CC2)cc1 (centres unmarked) [Substance M, 6-[4-[2-[3-(4-(2-cyclopropylmethoxy-ethyl)phenoxy)-2-hydroxy-propylamino]ethoxy]-3-methyl-phenyl]-4,5-dihydro-3(2H)-pyridazinone] | 51 | -64 | 8.20 | 7.05
